Measurements reported in patent US12391683B2, “Therapeutic compounds and methods” (Actio Biosciences, Inc., priority 2022, dated 2025).
“And” between values parts separate entries of the source, which are not always exact repeats. Equal values may be shown once.

Tests used:
[1] = biological target: recombinant human CYP3A4 enzyme (Homo sapiens, UniProt P08684); test: CYP3A4 incubation assay; assay type: in vitro ADME; parameters: Metabolic Stability in Recombinant Human CYP3A4 + NADPH (% remaining after 25 min): dose or concentration left out as unconfirmed
Protocol: Example 24. CYP3A4 Incubation Assay
Compounds (final concentration […]) were incubated in 100 mM phosphate buffer containing 100 pmol/mL recombinant human CYP3A4 enzyme for 0, 5, 10, 15 and 25 minutes.
Testosterone was used as positive control. Reaction was initiated by the addition of NADPH (final concentration […]) and carried out at 37° C. The reaction was stopped by the addition of 4 volumes of cold acetonitrile (with 100 nM alprazolam, 200 nM labetalol, 200 nM imipramine and 2 μM ketoprofen as internal standards). Samples were centrifuged at 3,220 g for 40 minutes to precipitate protein. 70 μL supernatant was transferred to the analysis plate containing 110 μL of acetonitrile for LC-MS/MS analysis.
The following table indicates the percentage remaining for the indicated examples after incubation with recombinant Human CYP3A4 after 25 minutes under the same conditions as described for Example […].

Hepatocytes [2] = test: Hepatocytes predicted clearance, rat
Hepatocytes [3] = test: Hepatocytes predicted clearance, dog
Hepatocytes [4] = test: Hepatocytes predicted clearance, cyno
Hepatocytes [5] = test: Hepatocytes predicted clearance, mouse
Hepatocytes [6] = test: Hepatocytes predicted clearance, human
Human TRPV4 = Human TRPV4 (Homo sapiens, UniProt Q9HBA0); test: TRPV4 calcium flux assay (FLIPR, antagonist mode); assay type: cell-based; parameters: HiBiT (inferred from the expression read-out); host or cells: HEK293T; conditions: HEK293T cells transfected with hTRPV4; antagonist mode vs EC80 of TRPV4 agonist; average of at least 3 separate experiments; read-out: Human TRPV4 Ca2+ Assay IC50
Protocol: Example 23. TRPV4 Calcium Assay Methods
Human embryonic kidney 293T (HEK293T/293T) cells are cultured in complete media (Dulbecco's Modified Eagle Medium (DMEM), containing 10% fetal bovine serum (FBS) and 1× penicillin-streptomycin) in a T-75 tissue culture flask. At 90% confluency, cells are detached using TrypLE™ Express cell dissociation buffer. TrypLE™ Express buffer is neutralized by adding culture media in excess. Cells are gently triturated and counted using trypan blue in a Countess 3 automated cell counter. Cells are transferred to a 50 mL conical tube and spun down at 1000 rotations per minute (RPM) for five minutes in a benchtop centrifuge. Media containing detaching enzyme is aspirated off the pellet, followed by resuspension to the desired concentration of 2×10^6 cells per mL in complete DMEM.
Transfection preparations were scaled using a combination of 6 μg of TRPV4 wild-type or mutant plasmid DNA, 36 μL of Fugene6 transfection reagent, and 1000 μL of OptiMEM media for every 2×10^6 cells needed. The transfection mix is left to incubate for 20 minutes at room temperature. Total seeding mixture (1000 μL 2×10^6 cells, 1000 μL transfection mix previously described, and 1000 μL complete DMEM) for one transfection is combined into a 15 mL conical tube. The cells and transfection plasmid are mixed thoroughly and dispensed into a reservoir. This is plated at 25 μL per well in a black 384, black-well, clear-bottom, tissue-culture treated plate. This yields approximately 16,000 cells per well. Plasmid DNA constructs were designed by Actio Biosciences in conjunction with Genscript, and generated by Genscript, for all hTRPV4 wild-type and hTRPV4 P/LP (ClinVar) mutations (G78W, P82S, T891, P97R, R186Q, R232C, R232P, R237G, R237Q, R237 L, R269C, R269H, R269S, G270V, R271P, F273 L, K276E, E278K, G280S, Y281S, R315G, R315W, R316C, R316H, R316 L, R316S, I331F, D333G, S403T, K403T, K407E, S542P, S542Y, L543R, Y591N, R594C, R594H, R594S, G600E, Y602C, R616Q, F617 L, L618P, V6201, A716S, A716T, L735R, T740I, R775K, W785R, E797D, E797K, P799A, P799R, P799S, P799 L, G800D, K801E, P827H, F471del, N797del). The remaining cells are plated in the same manner, in a 384, white-well, clear-bottom, tissue-culture treated plate for expression and relative cell number determination. Plates are placed in the incubator at 37° C. overnight.
Compounds were brought to 10 mM in DMSO. DMSO concentration was kept constant throughout the dilution of any compound. DMSO negative control and concentration-response curves were nanoliter-spotted via PICO8 automated dispenser at 5× test concentration into a 384w clear polypropylene plate containing 1×HBSS+20 mM HEPES buffer. A predetermined concentration equivalent to the EC80 of TRPV4 agonist on hTRPV4 was prepared at 6× in 1×HBSS+20 mM HEPES and loaded into a separate 384-well v-bottom polypropylene plate.
Approximately 18 hours post-transfection, the cell plates were removed from the incubator and equal volume (25 uL) Calcium 6 dye was gently added. Calcium 6 dye containing probenecid (final 5 mM) was prepared per manufacturer's instructions. Cell plate was returned to the incubator for 1 hour, at 37° C.
FLIPR Penta was programmed to add compound using the following settings • Pipettor Head=384 • Read Mode 1 Excitation Wavelength=470_495 • Read Mode 1 Emission Wavelength=515_575 • Read Mode 1 Exposure=0.1000 • Read Mode 1 Gain=6.50 • Read Mode 1 Excitation Intensity=20 • Volume of addition=12.5 μL • Height=40 μL • Speed=15 μL/second
Raw data was exported and analyzed for maximum signal (RFU) after agonist addition—the average baseline (RFU) in the first 15 seconds per well. Data was plotted in GraphPad Prism to determine EC50 or IC50 of the molecules.

[7] = human clinical trials, background statement; cited from earlier work
[8] = 100 pmol/mL recombinant human CYP3A4, 37° C., 0-25 min

Chain of Human TRPV4 (Q9HBA0 whole entry): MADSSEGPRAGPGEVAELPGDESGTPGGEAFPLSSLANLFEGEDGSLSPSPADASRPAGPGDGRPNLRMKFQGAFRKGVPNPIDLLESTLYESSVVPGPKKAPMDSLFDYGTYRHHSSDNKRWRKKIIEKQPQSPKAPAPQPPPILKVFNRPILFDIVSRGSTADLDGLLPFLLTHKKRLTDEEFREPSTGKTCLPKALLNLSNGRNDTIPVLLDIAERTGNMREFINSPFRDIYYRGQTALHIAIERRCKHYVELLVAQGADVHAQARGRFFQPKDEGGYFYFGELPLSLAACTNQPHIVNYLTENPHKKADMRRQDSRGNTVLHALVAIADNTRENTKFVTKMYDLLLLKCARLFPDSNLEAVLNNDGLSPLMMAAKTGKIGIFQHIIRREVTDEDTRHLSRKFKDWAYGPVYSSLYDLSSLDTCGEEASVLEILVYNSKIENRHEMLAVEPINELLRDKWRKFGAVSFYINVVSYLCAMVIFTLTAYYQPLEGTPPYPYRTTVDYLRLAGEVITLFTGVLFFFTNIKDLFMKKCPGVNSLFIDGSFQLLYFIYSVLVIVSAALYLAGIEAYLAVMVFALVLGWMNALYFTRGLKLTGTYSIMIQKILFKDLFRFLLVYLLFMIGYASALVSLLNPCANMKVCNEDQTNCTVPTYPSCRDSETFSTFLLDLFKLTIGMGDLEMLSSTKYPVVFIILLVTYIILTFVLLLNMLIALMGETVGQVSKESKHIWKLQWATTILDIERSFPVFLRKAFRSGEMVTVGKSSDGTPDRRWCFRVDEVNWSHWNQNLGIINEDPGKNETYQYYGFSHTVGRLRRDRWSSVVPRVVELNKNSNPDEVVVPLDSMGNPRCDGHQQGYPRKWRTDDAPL
Chain of recombinant human CYP3A4 enzyme (P08684 whole entry): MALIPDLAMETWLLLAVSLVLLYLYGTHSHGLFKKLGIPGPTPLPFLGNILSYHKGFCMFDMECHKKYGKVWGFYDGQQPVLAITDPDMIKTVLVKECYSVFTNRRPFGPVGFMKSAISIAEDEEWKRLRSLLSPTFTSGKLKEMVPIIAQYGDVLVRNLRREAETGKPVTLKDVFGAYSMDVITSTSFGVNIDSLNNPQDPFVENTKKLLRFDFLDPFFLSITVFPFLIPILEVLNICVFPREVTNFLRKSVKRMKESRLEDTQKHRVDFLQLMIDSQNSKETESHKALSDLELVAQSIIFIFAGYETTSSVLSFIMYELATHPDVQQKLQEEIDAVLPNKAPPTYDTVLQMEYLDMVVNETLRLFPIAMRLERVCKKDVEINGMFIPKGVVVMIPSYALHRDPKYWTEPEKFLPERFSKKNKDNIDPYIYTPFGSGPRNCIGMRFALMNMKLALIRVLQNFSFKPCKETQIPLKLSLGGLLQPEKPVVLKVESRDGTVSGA

Row | CYP3A4 Clint ([1]; human, recombinant enzyme) [μL/min/pmol CYP450] | Metabolic Stability in Recombinant Human CYP3A4 + NADPH (% remaining after 25 min) ([1]; human, recombinant enzyme) [%] | Compound | CYP3A4 Clint [1, 8] | Hepatocytes predicted clearance in rat (Hepatocytes [2]) [mL/min/kg] | Hepatocytes predicted clearance in dog (Hepatocytes [3]) [mL/min/kg] | Hepatocytes predicted clearance in cyno (Hepatocytes [4]) [mL/min/kg] | Hepatocytes predicted clearance in mouse (Hepatocytes [5]) [mL/min/kg] | Hepatocytes predicted clearance in human (Hepatocytes [6]) [mL/min/kg] | IC50 (Human TRPV4) [nM] | Metabolic Stability in Recombinant Human CYP3A4 + NADPH (% remaining after 25 min) ([1]; recombinant Human CYP3A4 + NADPH) [%] | efficacy across several human disease indications [7]
1 |  |  | CC(C)(O)c1cnc(N2C[C@@]3(CCC(F)(F)[C@H](Cn4cnc5ccc(C#N)cc54)C3)OC2=O)cn1 [Example 2, 1-(((5S,7S)-8,8-Difluoro-3-(5-(2-hydroxypropan-2-yl)pyrazin-2-yl)-2-oxo-1-oxa-3-azaspiro[4.5]decan-7-yl)methyl)-1H-benzo[d]imidazole-6-carbonitrile] | 0.08 μL/min/pmol CYP450 and < 0.07 μL/min/pmol CYP450 | < 0.17 | 1.3 | 34.8 | 31 | < 0.17 | 217 |  | 
2 |  |  | CC(C)(O)c1cnc(N2C[C@@]3(CCC(F)(F)[C@](C)(Cn4cnc5ccc(C#N)cc54)C3)OC2=O)cn1 [Example 15, 1-(((5S,7S)-8,8-Difluoro-3-(5-(2-hydroxypropan-2-yl)pyrazin-2-yl)-7-methyl-2-oxo-1-oxa-3-azaspiro[4.5]decan-7-yl)methyl)-1H-benzo[d]imidazole-6-carbonitrile] | 0.09 μL/min/pmol CYP450 and < 0.07 μL/min/pmol CYP450 | 4.5 | 4.33 | 28.3 | 27.8 | 3.83 | 8 | 91.3 | 
3 | 0.18 | 69.6 | CC(C)(O)c1cnc(N2C[C@@]3(CCC[C@](C)(Cn4cnc5ccc(C#N)cc54)C3)OC2=O)cn1 [GSK2798745, reference compound] |  | 20.7 | 7.17 | 21.5 | 44.3 | < 0.17 | 10 |  | failed to show efficacy
